Tests used:
AChE = AChE (Homo sapiens, UniProt P22303); experiment: Acetylcholine esterase inhibition screening; type: biochemical; settings: concentration of 1 µm
BuChE = BuChE (Homo sapiens, UniProt P06276); experiment: Butyrylcholine esterase inhibition screening; type: biochemical; settings: concentration of 1 µm
MAO B = biological target: T1, MAO B (Homo sapiens, UniProt P27338); settings: seven kynuramine concentrations, Lineweaver–Burk plots
T1 sequence (P27338 1-520): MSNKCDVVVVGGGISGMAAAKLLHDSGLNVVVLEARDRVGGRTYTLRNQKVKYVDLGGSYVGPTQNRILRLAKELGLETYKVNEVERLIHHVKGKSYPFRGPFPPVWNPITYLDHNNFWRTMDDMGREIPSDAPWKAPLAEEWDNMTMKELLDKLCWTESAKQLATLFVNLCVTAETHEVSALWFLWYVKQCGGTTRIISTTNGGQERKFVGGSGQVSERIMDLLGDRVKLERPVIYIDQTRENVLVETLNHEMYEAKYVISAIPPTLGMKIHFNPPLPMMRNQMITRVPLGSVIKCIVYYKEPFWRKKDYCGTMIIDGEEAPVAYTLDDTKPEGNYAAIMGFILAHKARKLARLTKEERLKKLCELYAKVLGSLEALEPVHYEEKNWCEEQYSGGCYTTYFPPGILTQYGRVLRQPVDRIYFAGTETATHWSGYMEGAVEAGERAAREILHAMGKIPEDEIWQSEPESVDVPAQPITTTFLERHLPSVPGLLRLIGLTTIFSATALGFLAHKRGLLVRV

[1] = biological target: T2, human recombinant monoamine oxidase B (MAO B) (Homo sapiens, UniProt P27338); type: biochemical; settings: MAO B vs MAO A
T2 sequence (P27338 1-520): T1 sequence (P27338 1-520)

Chain of BuChE (P06276 29-602): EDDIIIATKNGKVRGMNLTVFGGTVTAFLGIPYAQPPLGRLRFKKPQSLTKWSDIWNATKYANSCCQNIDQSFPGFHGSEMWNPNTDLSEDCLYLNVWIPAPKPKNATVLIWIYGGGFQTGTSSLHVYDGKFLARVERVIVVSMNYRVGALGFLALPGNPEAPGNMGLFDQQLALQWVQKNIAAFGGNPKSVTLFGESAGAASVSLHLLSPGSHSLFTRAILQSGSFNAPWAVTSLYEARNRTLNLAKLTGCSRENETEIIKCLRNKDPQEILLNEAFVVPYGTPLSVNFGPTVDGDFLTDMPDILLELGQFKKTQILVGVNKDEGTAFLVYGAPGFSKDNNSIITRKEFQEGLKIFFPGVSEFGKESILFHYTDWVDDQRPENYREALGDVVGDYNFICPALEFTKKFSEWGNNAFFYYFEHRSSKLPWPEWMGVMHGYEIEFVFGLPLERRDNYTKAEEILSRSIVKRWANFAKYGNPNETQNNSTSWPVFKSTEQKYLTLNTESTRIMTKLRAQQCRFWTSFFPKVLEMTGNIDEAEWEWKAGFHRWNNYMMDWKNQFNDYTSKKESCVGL
Chain of AChE (P22303 32-614): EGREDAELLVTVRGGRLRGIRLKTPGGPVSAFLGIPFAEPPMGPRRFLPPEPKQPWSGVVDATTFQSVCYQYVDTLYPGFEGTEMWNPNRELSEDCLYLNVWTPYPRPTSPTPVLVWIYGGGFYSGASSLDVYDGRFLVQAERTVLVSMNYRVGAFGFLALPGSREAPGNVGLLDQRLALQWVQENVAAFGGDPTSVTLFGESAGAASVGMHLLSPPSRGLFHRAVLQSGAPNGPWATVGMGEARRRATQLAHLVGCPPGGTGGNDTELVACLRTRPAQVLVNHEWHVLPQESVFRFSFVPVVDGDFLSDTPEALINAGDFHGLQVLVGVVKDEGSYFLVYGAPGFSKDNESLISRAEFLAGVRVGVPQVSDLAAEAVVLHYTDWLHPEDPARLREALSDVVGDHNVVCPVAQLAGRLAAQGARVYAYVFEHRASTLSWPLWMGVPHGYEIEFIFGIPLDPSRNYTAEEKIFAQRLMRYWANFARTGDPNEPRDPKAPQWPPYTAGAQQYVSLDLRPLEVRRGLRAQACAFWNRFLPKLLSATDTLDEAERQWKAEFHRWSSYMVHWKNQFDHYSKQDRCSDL

What does the source list for `O=C(Nc1ccc([N+](=O)[O-])cc1[N+](=O)[O-])c1ccc2c(c1)OCO2` [Compound 55, N-(2,4-Dinitrophenyl)benzo[d][1,3]dioxole-5-carboxamide]?
inhibition of AChE at 1 µm (AChE): 24±1.8%; inhibition of BuChE at 1 µm (BuChE): 57±4.5%; Type of MAO B inhibition (MAO B): competitive

With `O=C(Nc1ccc([N+](=O)[O-])cc1[N+](=O)[O-])c1ccccc1` [Compound 7, N-(2,4-Dinitrophenyl)benzamide] as the molecule, how does the “fold lower affinity towards MAO B than MAO A” value [1] read?
Its value is 8.3 fold.
